Assay results: patent US6379959B1, “Metalocarboxypeptidase inhibitors and derived molecules used as antitumor agents” (Universitat Autonoma de Barcelona, priority 1996, dated 2002)
Positions of bridges follow the written chain, without caps; N, C: chain ends. No end group written: not given here.

Tests used:
Format in all cases: cell-based
[1] = system: human pancreatic adenocarcinoma cell line Capan-1; experiment: Proliferation test with tetrazolium salts, Capan-1 in medium with serum; settings: 23 days
Method: In this test, with the aim of determining whether the presence of PCI in the culture medium produces some effect on the growth in vitro of the cellular lines, the final amount of cells was evaluated after a specific number of days, in presence and absence of inhibitor. The final number of cells was determined by means of tetrazolium salts (kit EZ4U) which, being added to the cultures, are reduced by mitochondrial enzymes of the cells, producing derivatives of formazan of a different colour. The amount of formed derivatives depends on the number of existing cells.
1. In a culture plate of 96 wells, in 48 of them, 5,000 cells were seed. Of these 48:
In 8 wells (control), 200 μL of full medium (DMEM+10%FBS) were added without PCI. […]
2. The cells were kept in an incubator at 37° C., 87% of relative humidity and 10% of CO2. The medium contained in the wells was changed every 3-4 days. The old medium was sucked out with a Pasteur pipette. Medium free of PCI was added to the control wells and, to the others, a medium with identical concentration of PCI to which they had previously, was also added.
3. After a specific number of days, the number of cells per well was evaluated by means of the following procedure:
To calculate the result of the test, the following was done: the average of the A620 of the blank ones was substracted from the A620 of each well. Immediately after, the result of the previous subtraction, as well as the average of the A450 of the blank ones was substracted from the A450 of each well. The result thus obtained is directly proportional to the amount of cells present in the well. Next, the average and the typical deviation was obtained from the results of the wells which had undergone identical treatment.
The effect of the presence of the PCI can be expressed employing the cell growth percentage in relation to the controls (without PCI) which is easily calculated: [formula]
A proliferation test with indirect determination of the number of cells by means of tetrazolium salts using the cell line Capan-1 was carried out. This is a human pancreatic adenocarcinoma cell line (ATCC nr. HTB-79), established by Fogh, G. et al. (1977) J. Natl. Cancer Inst., 58: 209-214, and Fogh, J. et al. (1977) J. Natl. Cancer Inst., 59: 221-226, from a liver metastasis.
As it has been explained, the cells were cultivated for 23 days, after which the cell growth was evaluated per well by means of tetrazolium salts. The results obtained are expressed in Table 3, where the average, the standard deviation and the standard error of the cell growth in relation to the controls are shown.

[2] = system: human pancreatic adenocarcinoma cell line Capan-1; experiment: Apoptosis by DAPI labeling and fluorescence microscope
Method: The studies of possible induction of apoptosis by the PCI were done with the human pancreatic adenocarcinoma cell line Capan-1. The detailed procedure that was employed is as follows:
1. 5×10^5 cells were seed in the chambers/slides and were cultured for 3 o 4 days (until the moment in which, through microscope observation, they presented 75% of confluence). The cells were cultured in DMEM+10% FBS.
2. […] A positive control was added, cysplatinum, at a concentration of 10 μg/mL (a drug which induces apoptosis in various tumor cell lines, Borner, M. M., et al. (1995) Cancer Res., 55: 2122-2128. The incubation period was 24 h.
3. The medium was removed after incubation and the chamber was washed with 2 mL of PBS.
5. Cells were fixed with 2 mL of 2% formaldehyde for 20 min at 4° C.
6. The plates were washed again with 2 mL of PBS for 5 min at room temperature.
7. Cell membranes were permeabilized with 0.25% Triton ×100 in PBS for 5 min at 4° C.
8. Washed with PBS for 5 min at room temperature.
9. The cells were labeled with DAPI at a final concentration of 2 μg/mL for 50 min in darkness at room temperature.
10. The preparation was fitted with the fluoroprep medium and it was examined through the fluorescence microscope.
% apoptosis=(number of apoptotic cells/total number of cells)×100

[3] = system: human pancreatic adenocarcinoma cell line Capan-1; experiment: Flow cytometry analysis of cell cycle phases; settings: 50 µg/mL of PCI

Substance: PCI: potato carboxypeptidase inhibitor, isoform IIa, obtained by recombinant DNA techniques in E. coli (SEQ ID NO.2) (EQHADPICNKPCKTHDDCSGAWFCQACWNSARTCGPYVG; disulfide 12-27, 18-34, 8-24)
- Growth (Percentage in relation to the average of the controls) ([1]; 0.1 µg/mL PCI in the medium, DMEM+10%FBS): 19.4%
- Growth (Percentage in relation to the average of the controls) ([1]; 1 µg/mL PCI in the medium): 17.1%
- Growth (Percentage in relation to the average of the controls) ([1]; 10 µg/mL PCI in the medium): 50.0%
- Growth (Percentage in relation to the average of the controls) ([1]; 50 µg/mL PCI in the medium): 44.8%
- Growth (Percentage in relation to the average of the controls) ([1]; 200 µg/mL PCI in the medium): 43.3%
- inhibition of the growth ([1]; concentrations of 0.1 and 1 μg/mL): higher than 80%
- inhibition of the growth ([1]; concentrations of 10, 50 and 200 μg/mL): ~50%
- % Apoptosis ([2]; 0,1 mg/mL PCI, 24 h (negative control 0.08)): 0.11%
- % Apoptosis ([2]; 10 mg/mL PCI, 24 h): 0.095%
- % Apoptosis ([2]; 50 mg/mL PCI, 24 h): 0.41%
- % Apoptosis ([2]; 200 mg/mL PCI, 24 h): 0.038%
- index of apoptosis relative to the control ([2]; PCI 50 μg/mL, 24 h): 5 times
- % G2 M ([3]; 24 h (control 6.4)): 4.7%
- % S ([3]; 24 h (control 14.3)): 20.4%
- % G1 ([3]; 24 h (control 79.2)): 74.9%
- % G1 ([3]; 48 h): 85.3%
- % G2 M ([3]; 48 h): 3.7%
- % S ([3]; 48 h): 11%
- % G1 ([3]; 72 h): 85.1%
- % G2 M ([3]; 72 h): 4%
- % S ([3]; 72 h): 10.9%
- % G1 ([3]; 96 h): 88.5%
- % G2 M ([3]; 96 h): 3.9%
- % S ([3]; 96 h): 7.6%
